Measured values from the supplement of paper PMC10307832.

Legend:
Assay in all cases: relative viability (nuclei count vs DMSO), 5 days (fraction); higher = more cells survive
IDH-C35 + Navitoclax = compound: Cc1ccccc1C(C(=O)NC1CCCCC1)N(C(=O)Cn1ccnc1C)c1cccc(F)c1 [IDH-C35] + CC1(C)CCC(c2ccc(Cl)cc2)=C(CN2CCN(c3ccc(C(=O)NS(=O)(=O)c4ccc(N[C@H](CCN5CCOCC5)CSc5ccccc5)c(S(=O)(=O)C(F)(F)F)c4)cc3)CC2)C1 [Navitoclax] (partner 0.5 µM)
How it was run: (§1)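 Lung cancer cell lines in 1536-well plates got either a single drug or a fixed anchor-drug dose together with five library-drug doses (not always all listed) in √10 steps, by pin tool, on the day after seeding. Nuclei were counted after 5 days, and relative viability is the treated-to-vehicle ratio of nuclei counts. Values are medians of duplicate plates.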

IDH-C35 + Crizotinib = compound: Cc1ccccc1C(C(=O)NC1CCCCC1)N(C(=O)Cn1ccnc1C)c1cccc(F)c1 [IDH-C35] + C[C@@H](Oc1cc(-c2cnn(C3CCNCC3)c2)cnc1N)c1c(Cl)ccc(F)c1Cl [Crizotinib] (partner 1 µM)
How it was run: as §1

[1] = compound: CC1=C(C(=NN1)C)CC2=C(C3=C(S2)N(C(=O)N(C3=O)C)CC(C)C)C(=O)N4C[C@@H](CO4)O + Cc1cc(Nc2cc(N3CCN(C)CC3)nc(Sc3ccc(NC(=O)C4CC4)cc3)n2)n[nH]1 [Tozasertib] (partner 0.1 µM)
How it was run: as §1

IDH-C35 + Pemetrexed = compound: Cc1ccccc1C(C(=O)NC1CCCCC1)N(C(=O)Cn1ccnc1C)c1cccc(F)c1 [IDH-C35] + Nc1nc2[nH]cc(CCc3ccc(C(=O)N[C@@H](CCC(=O)O)C(=O)O)cc3)c2c(=O)[nH]1 [Pemetrexed] (partner 0.2 µM)
How it was run: as §1

Row | Cell Line | relative viability (IDH-C35 + Navitoclax; first compound 0.08 µM) | relative viability (IDH-C35 + Navitoclax; first compound 0.253 µM) | relative viability (IDH-C35 + Navitoclax; first compound 0.8 µM) | relative viability (IDH-C35 + Navitoclax; first compound 2.53 µM) | relative viability (IDH-C35 + Navitoclax; first compound 8 µM) | relative viability (IDH-C35 + Crizotinib; first compound 0.08 µM) | relative viability (IDH-C35 + Crizotinib; first compound 0.253 µM) | relative viability (IDH-C35 + Crizotinib; first compound 0.8 µM) | relative viability (IDH-C35 + Crizotinib; first compound 2.53 µM) | relative viability (IDH-C35 + Crizotinib; first compound 8 µM) | relative viability ([1]; first compound 0.0025 µM) | relative viability ([1]; first compound 0.007906 µM) | relative viability ([1]; first compound 0.025 µM) | relative viability ([1]; first compound 0.07906 µM) | relative viability ([1]; first compound 0.25 µM) | relative viability (IDH-C35 + Pemetrexed; first compound 0.08 µM) | relative viability (IDH-C35 + Pemetrexed; first compound 0.253 µM) | relative viability (IDH-C35 + Pemetrexed; first compound 0.8 µM) | relative viability (IDH-C35 + Pemetrexed; first compound 2.53 µM) | relative viability (IDH-C35 + Pemetrexed; first compound 8 µM)
1 | NCI-H23 | 0.792 | 0.828 | 0.883 | 0.992 | 0.807 | 0.488 | 0.654 | 0.488 | 0.507 | 0.432 | 0.784 | 0.42 | 0.412 | 0.334 | 0.388 | 0.642 | 0.848 | 0.625 | 0.773 | 0.652
2 | HCC-366 | 0.937 | 1.13 | 1.03 | 0.981 | 1.01 | 0.546 | 0.51 | 0.564 | 0.546 | 0.42 | 0.491 | 0.11 | 0.153 | 0.114 | 0.109 | 0.143 | 0.156 | 0.171 | 0.188 | 0.176
3 | EMC-BAC-2 | 1.13 | 1.12 | 1.15 | 1.12 | 1.14 | 0.809 | 0.731 | 0.744 | 0.713 | 0.743 | 0.268 | 0.296 | 0.272 | 0.3 | 0.317 | 0.457 | 0.477 | 0.473 | 0.463 | 0.398
4 | NCI-H2405 | 0.926 | 0.981 | 0.918 | – | 0.76 | 0.837 | 0.841 | 0.852 | 0.829 | 0.797 | 0.697 | 0.729 | – | 0.577 | 0.676 | 1.05 | 1.07 | 0.93 | 1.24 | 1.08
